Results: publication PMC11003925, “Antimicrobial activity and properties of de novo design of short synthetic lipopeptides” (Folia Microbiologica, 2024)
Converted amounts (≈) assume the structure as drawn. Residues, ends and D or L forms follow the SMILES beside them. *: point of attachment. Palmitoyl = CCCCCCCCCCCCCCCC(=O)*

Key:
Ps. aeruginosa DBM 3081 = format: cell-based, Pseudomonas aeruginosa; conditions: 25 h
Experimental: (§1) A Bioscreen C automated microbiology growth curve analysis system (Growth Curves, Piscataway, NJ, USA) was used for the quantitative determination of antimicrobial activity (minimal inhibitory concentration, MIC) of PAL/LCA-peptides. Optical density was measured with a wide bandpass filter (wavelength range 420–580 nm) at regular intervals and temperatures. This assay was performed in a special microtiter plate (10 × 10 wells) that allowed the simultaneous testing of a large number of samples against several microorganisms. The total testing volume was 100 µL, obtained by mixing 10 µL of microbial culture with OD600 equal to 0.1 with growth medium and a solution of the tested compounds. The positive controls were vancomycin and tetracycline for Bacillus subtilis (100 µg/mL) for Gram-positive bacteria, kanamycin, and tetracycline for Acinetobacter baumannii (100 µg/mL) for Gram-negative bacteria, and clotrimazole or amphotericin (100 µg/mL) for fungi. The maximal concentration of tested lipoproteins was 1 mg/mL. A pure growth medium was used as the negative control. The measurement period was 25 h. The lowest concentration with a 100% inhibition effect for 24 h of incubation was chosen as the MIC. The antibacterial activity of each compound was expressed as the minimum inhibitory concentration MIC (MIC is the lowest concentration of the compound needed to inhibit the growth of bacterial cells) and IC50 (IC50 is the concentration of the compound needed to inhibit the growth of bacterial cells by 50%).

B. subtilis DBM 3006 = format: cell-based, Bacillus subtilis
Experimental: as §1

M. luteus DBM 3053 = format: cell-based, Micrococcus luteus
Experimental: as §1

C. tropicalis DBM 2166 = format: cell-based, Candida tropicalis
Experimental: as §1

Staph. aureus MRSA1 = format: cell-based, Staphylococcus aureus; conditions: 24 h, 2
Experimental: This assay was used to determine how quick the effect of PAL/LCA-peptides is on bacteria, as well as whether the activity of these compounds is dependent on the presence of active bacterial metabolism (Kamysz et al. [2007]). The bacterial cultures were incubated overnight at 37 °C in Mueller–Hinton’s broth 2 or potassium phosphate buffer (0.1 M, pH 7). Cultures were diluted to OD600 equal to 0.1 and divided into 2 samples, and the final volume of each sample was 1 mL; after that, they were centrifuged (5000 × g, 10 min) to collect bacteria. […] The samples were incubated at 37 °C. At specific time intervals, samples of bacterial suspension were taken, diluted, and spread on Petri dishes with Mueller–Hinton’s agar to count the number of surviving cells as colony-forming units (CFU). The whole experiment lasted 24 h.

bacterial membrane = test: Membrane disruption (released lactate dehydrogenase activity); format: cell-based, Staphylococcus aureus; conditions: 1 h incubation at 37 °C, LDH kit, triplets
Experimental: The disruption of the microbial membrane was followed by the detection of lactate dehydrogenase activity released from the intracellular space using a Cytotoxicity Detection Kit (LDH) from Roche (Korzeniewski and Callewaert [1983]; Macurkova et al. [2014]) after 1 h incubation at 37 °C with the PAL/LCA-peptide. The culture supernatant was collected and incubated with the reaction mixture from the kit. In the first step, NAD^+ is reduced to NADH + H^+ by the LDH-catalyzed conversion of lactate to pyruvate. In the second step, the catalyst (diaphorase) transfers H/H^+ from NADH + H^+ to the tetrazolium salt 2-(4-iodophenyl)-3-(4-nitrophenyl)-5-phenyl-2H-tetrazolium chloride (INT), which is reduced to formazan. The formazan dye formed is red and water-soluble and gives a broad absorption maximum at 500 nm. An increase in the amount of dead or plasma membrane-damaged cells results in an increase in the LDH activity in the cell culture supernatant.
To determine the degree of damage to the cell membrane (%) by the tested substances, averages of absorbances (triplets) were calculated from the measured values for the samples, controls, and pure medium. Subsequently, the absorbance average for the clean medium (background) was subtracted from all averages obtained in this way. The degree of damage to the cell membrane by the tested substances was expressed as follows: membranedamage%=((AVZ-∅ANK)/(∅APK-ANK))∙100 ∅AVZ⋯averageabsorbanceofsample ∅ANK⋯averageabsorbanceofnegativecontrol ∅APK⋯averageabsorbanceofpositivecontrol

plasmid pGreen 0029 = test: DNA binding assay (gel retardation); conditions: circular or linearized forms, tested ratios
Experimental: This assay was performed as described by Park et al. ([1998]), with a few modifications. […] The reaction mixture was incubated at room temperature for 1 h. Subsequently, 4 µL of native loading buffer (10% Ficol, 10 mM Tris–HCl (pH 7.5), 50 mM EDTA, 0.25% bromophenol blue) was added. An aliquot was applied to 1% agarose gel electrophoresis in 0.5xTris borate-EDTA buffer. Circular plasmid DNA was isolated from (Luria–Bertani medium with AMPI in final concentration 100 µg/mL) bacterial strain E. coli DH5α / pBluescriptII KS- that had been grown overnight, and linearization was performed overnight by enzymatic reaction using restriction endonuclease EcoRV at 37 °C. The evaluation was performed by visualizing the DNA with the intercalation dye Midori Green Advanced DNA Stain under UV light. Reduced electrophoretic mobility compared to the control is considered to be evidence of peptide binding to DNA.
According to the previous results, we decided to clarify one of the possible molecular interaction mechanisms, the ability of the studied lipopeptides to bind microbial plasmid DNA. Based on the assumption that pore formation is only one of the influencing factors, which arose from previous results, the effect on one of the possible intracellular targets, DNA, was determined. This determination was carried out on isolated plasmid DNA, specifically on two plasmids, pGreen 0029 and pBluescript II KS- in circular and linearized form.

IC50 (Ps. aeruginosa DBM 3081): 60.0 µg/mL (≈ 68.2 µM)
MIC (B. subtilis DBM 3006; DBM 3006, 24 h): 16.9 µg/mL (≈ 19.2 µM)
IC50 (B. subtilis DBM 3006; DBM 3006, 25 h): 25.0 µg/mL (≈ 28.4 µM)
MIC (M. luteus DBM 3053; DBM 3053, 24 h): 6.4 µg/mL (≈ 7.27 µM)
IC50 (M. luteus DBM 3053; DBM 3053, 25 h): 10.0 µg/mL (≈ 11.4 µM)
MIC (C. tropicalis DBM 2166; DBM 2166, 24 h): 55.9 µg/mL (≈ 63.5 µM)
IC50 (C. tropicalis DBM 2166; DBM 2166, 25 h): 100.0 µg/mL (≈ 114 µM)
influence on electrophoretic mobility of plasmid DNA (plasmid pGreen 0029): did not exhibit any influence
SMILES: CCCCCCCCCCCCCCCC(=O)N[C@@H](CC(C)C)C(=O)N[C@H](C(=O)N[C@@H](CCCCN)C(=O)N[C@@H](CCCNC(=N)N)C(=O)N[C@@H](C)C(=O)NCC(N)=O)C(C)C [SHP-1.2, PAL-LVKRAG-NH2] (Palmitoyl-LVKRAG-NH2)
bacteria killed within half an hour (Staph. aureus MRSA1): 100%
Membrane damage (%) (bacterial membrane; KP (potassium phosphate buffer)): 32 ± 4%
Membrane damage (%) (bacterial membrane; MHB (Mueller–Hinton broth II)): 26 ± 3%
